In publication PMC5218480 (PLoS ONE, 2017):

Test system: MV-4-11 cells
Experiment: Gene expression microarray analysis (Affymetrix PrimeView) and GSEA
Type: cell-based, human
Design: RFU PODN (11730768_x_at) / Fold change /veh PODN (11730768_x_at) / RFU LINC00158 (11744669_a_at) / Fold change /veh LINC00158 (11744669_a_at) / RFU DUSP10 (11751237_a_at) / Fold change /veh DUSP10 (11751237_a_at) / RFU ID3 (11757404_x_at) / Fold change /veh ID3 (11757404_x_at) / RFU PLEKHG5 (11737974_s_at) / Fold change /veh PLEKHG5 (11737974_s_at) / RFU LRRC4B (11730491_at) / Fold change /veh LRRC4B (11730491_at) / RFU GIMAP4 (11747438_a_at) / Fold change /veh GIMAP4 (11747438_a_at) / RFU KRT8 (11758183_x_at) / Fold change /veh KRT8 (11758183_x_at) / RFU CNN1 (11734310_a_at) / Fold change /veh CNN1 (11734310_a_at) / RFU VPS37D (11726825_at) / Fold change /veh VPS37D (11726825_at) / RFU C10orf10 (11716522_x_at) / Fold change /veh C10orf10 (11716522_x_at) / RFU KIR2DL2 /// KIR2DL4 /// KIR2DL5A /// KIR2DL5B /// KIR2DS1 /// KIR2DS2 /// KIR2DS3 /// KIR2DS4 /// KIR3DL3 /// KIR3DL3 /// KIR3DS1 (11738374_at) / Fold change /veh KIR2DL2 /// KIR2DL4 /// KIR2DL5A /// KIR2DL5B /// KIR2DS1 /// KIR2DS2 /// KIR2DS3 /// KIR2DS4 /// KIR3DL3 /// KIR3DL3 /// KIR3DS1 (11738374_at) / RFU C1QL1 (11718748_at) / Fold change /veh C1QL1 (11718748_at) / RFU TMPRSS4 (11747572_a_at) / Fold change /veh TMPRSS4 (11747572_a_at) / RFU HAMP (11756126_x_at) / Fold change /veh HAMP (11756126_x_at) / RFU RNFT2 (11725882_a_at) / Fold change /veh RNFT2 (11725882_a_at) / RFU NR4A2 (11747474_a_at) / Fold change /veh NR4A2 (11747474_a_at) / RFU ABCC12 (11746883_a_at) / Fold change /veh ABCC12 (11746883_a_at) / RFU TMEM136 (11760407_x_at) / Fold change /veh TMEM136 (11760407_x_at) / RFU CLDN22 /// WWC2 (11732394_at) / Fold change /veh CLDN22 /// WWC2 (11732394_at) / RFU HLA-DPB1 (11760878_x_at) / Fold change /veh HLA-DPB1 (11760878_x_at) / RFU SPINT1 (11716480_a_at) / Fold change /veh SPINT1 (11716480_a_at) / RFU GAP43 (11754022_s_at) / Fold change /veh GAP43 (11754022_s_at) / RFU A4GNT (11735810_at) / Fold change /veh A4GNT (11735810_at) / RFU PRB3 (11715151_x_at) / Fold change /veh PRB3 (11715151_x_at) / RFU TUBB4B (11761932_at) / Fold change /veh TUBB4B (11761932_at) / RFU CAPN14 (11732068_a_at) / Fold change /veh CAPN14 (11732068_a_at) / RFU TMCC2 (11721928_a_at) / Fold change /veh TMCC2 (11721928_a_at) / RFU IRGQ (11745062_a_at) / Fold change /veh IRGQ (11745062_a_at) / RFU FAM174B (11720279_a_at) / Fold change /veh FAM174B (11720279_a_at) / RFU TMPRSS4 (11748680_a_at) / Fold change /veh TMPRSS4 (11748680_a_at) / RFU FAM212B (11763350_a_at) / Fold change /veh FAM212B (11763350_a_at) / RFU PLEKHG5 (11743358_a_at) / Fold change /veh PLEKHG5 (11743358_a_at) / RFU ZSCAN30 (11745921_a_at) / Fold change /veh ZSCAN30 (11745921_a_at) / RFU CMKLR1 (11741424_a_at) / Fold change /veh CMKLR1 (11741424_a_at) / RFU LOC101060620 /// MAPK8IP1 (11723275_at) / Fold change /veh LOC101060620 /// MAPK8IP1 (11723275_at) / RFU SPTSSB (11747773_x_at) / Fold change /veh SPTSSB (11747773_x_at) / RFU PRSS12 (11739890_at) / Fold change /veh PRSS12 (11739890_at) / RFU BIN1 (11741810_x_at) / Fold change /veh BIN1 (11741810_x_at) / RFU WNT11 (11732464_a_at) / Fold change /veh WNT11 (11732464_a_at) / RFU C10orf10 (11716521_a_at) / Fold change /veh C10orf10 (11716521_a_at) / RFU C5orf56 (11738089_at) / Fold change /veh C5orf56 (11738089_at) / RFU CYB561 (11721691_x_at) / Fold change /veh CYB561 (11721691_x_at) / RFU ANKRD19P (11752326_a_at) / Fold change /veh ANKRD19P (11752326_a_at) / RFU OR2T12 /// OR2T33 /// OR2T8 (11738714_s_at) / Fold change /veh OR2T12 /// OR2T33 /// OR2T8 (11738714_s_at) / RFU VCAN (11748164_a_at) / Fold change /veh VCAN (11748164_a_at) / RFU JSRP1 (11732532_at) / Fold change /veh JSRP1 (11732532_at) / RFU KRTAP10-11 (11738290_x_at) / Fold change /veh KRTAP10-11 (11738290_x_at) / RFU MYO3A (11730013_a_at) / Fold change /veh MYO3A (11730013_a_at) / RFU EBF3 (11725865_a_at) / Fold change /veh EBF3 (11725865_a_at) / RFU CAMK2N1 (11719241_x_at) / Fold change /veh CAMK2N1 (11719241_x_at) / RFU C5orf56 (11738088_a_at) / Fold change /veh C5orf56 (11738088_a_at) / RFU OLFML3 (11715873_a_at) / Fold change /veh OLFML3 (11715873_a_at) / RFU LOC100653217 /// NTM (11731650_a_at) / Fold change /veh LOC100653217 /// NTM (11731650_a_at) / RFU MAPK11 (11762145_a_at) / Fold change /veh MAPK11 (11762145_a_at) / RFU FIZ1 (11724087_x_at) / Fold change /veh FIZ1 (11724087_x_at) / RFU OASL (11726364_x_at) / Fold change /veh OASL (11726364_x_at) / RFU SOX15 (11748057_x_at) / Fold change /veh SOX15 (11748057_x_at) / RFU CD79A (11719716_a_at) / Fold change /veh CD79A (11719716_a_at) / RFU HIST1H1D (11736915_at) / Fold change /veh HIST1H1D (11736915_at) / RFU CASKIN2 (11723855_a_at) / Fold change /veh CASKIN2 (11723855_a_at) / RFU LOC730098 (11760151_x_at) / Fold change /veh LOC730098 (11760151_x_at) / RFU OR4N2 (11742367_at) / Fold change /veh OR4N2 (11742367_at) / RFU PRRT2 (11749266_a_at) / Fold change /veh PRRT2 (11749266_a_at) / RFU SNX32 (11753110_a_at) / Fold change /veh SNX32 (11753110_a_at) / RFU CDHR5 (11726645_a_at) / Fold change /veh CDHR5 (11726645_a_at) / RFU RCAN1 (11760418_a_at) / Fold change /veh RCAN1 (11760418_a_at) / RFU FAM167A (11723789_a_at) / Fold change /veh FAM167A (11723789_a_at) / RFU FAM26E (11764081_at) / Fold change /veh FAM26E (11764081_at) / RFU ISYNA1 (11749810_s_at) / Fold change /veh ISYNA1 (11749810_s_at) / RFU ACY1 (11761880_at) / Fold change /veh ACY1 (11761880_at) / RFU 11764098_at / Fold change /veh 11764098_at / RFU SAMD14 (11745864_x_at) / Fold change /veh SAMD14 (11745864_x_at) / RFU NPB (11741838_a_at) / Fold change /veh NPB (11741838_a_at) / RFU TMPRSS6 (11731388_a_at) / Fold change /veh TMPRSS6 (11731388_a_at) / RFU KRTAP10-2 (11738614_at) / Fold change /veh KRTAP10-2 (11738614_at) / RFU ARHGAP8 /// PRR5-ARHGAP8 (11727945_x_at) / Fold change /veh ARHGAP8 /// PRR5-ARHGAP8 (11727945_x_at) / RFU KRTAP5-7 /// NADSYN1 (11734609_at) / Fold change /veh KRTAP5-7 /// NADSYN1 (11734609_at) / RFU RASL12 (11751679_a_at) / Fold change /veh RASL12 (11751679_a_at) / RFU CDKN2B (11736163_a_at) / Fold change /veh CDKN2B (11736163_a_at) / RFU PRF1 (11729649_at) / Fold change /veh PRF1 (11729649_at) / RFU, ZNF638 /// ZNF638-IT1 / Fold change vs veh, ZNF638 /// ZNF638-IT1 / RFU, PANK3 / Fold change vs veh, PANK3 / RFU, SH3YL1 / Fold change vs veh, SH3YL1 / RFU, ZEB2 / Fold change vs veh, ZEB2 / RFU, NRIP1 / Fold change vs veh, NRIP1 / RFU, PTTG1IP / Fold change vs veh, PTTG1IP / RFU, CAPN2 / Fold change vs veh, CAPN2 / RFU, MED14 / Fold change vs veh, MED14 / RFU, SNORA58 / Fold change vs veh, SNORA58 / RFU, C1orf63 / Fold change vs veh, C1orf63 / RFU, LRRFIP1 / Fold change vs veh, LRRFIP1 / RFU, NDUFAF7 / Fold change vs veh, NDUFAF7 / RFU, SLC12A2 / Fold change vs veh, SLC12A2 / RFU, IBTK / Fold change vs veh, IBTK / RFU, ESF1 / Fold change vs veh, ESF1 / Fold change vs veh, TMEM50B / RFU, TAOK1 / Fold change vs veh, TAOK1 / RFU, ACBD3 / Fold change vs veh, ACBD3 / RFU, TMA16 / Fold change vs veh, TMA16 / RFU, RWDD3 / Fold change vs veh, RWDD3 / RFU, BCAT1 / Fold change vs veh, BCAT1 / RFU, EDEM3 / Fold change vs veh, EDEM3 / RFU, TMEM33 / Fold change vs veh, TMEM33 / RFU, WDR75 / Fold change vs veh, WDR75 / RFU, AHCTF1 / Fold change vs veh, AHCTF1 / RFU, TFRC / Fold change vs veh, TFRC / RFU, ZDHHC17 / Fold change vs veh, ZDHHC17 / RFU, NOM1 / Fold change vs veh, NOM1 / RFU, ARL8B / Fold change vs veh, ARL8B / RFU, ZBTB11 / Fold change vs veh, ZBTB11 / RFU, TAMM41 / Fold change vs veh, TAMM41 / RFU, KIAA1704 /// LOC100996395 / Fold change vs veh, KIAA1704 /// LOC100996395 / RFU, ING1 / Fold change vs veh, ING1 / RFU, TRMT61B / Fold change vs veh, TRMT61B / RFU, FUBP3 / Fold change vs veh, FUBP3 / RFU, TP53 / Fold change vs veh, TP53 / RFU, TNKS2 / Fold change vs veh, TNKS2 / RFU, ZFP14 / Fold change vs veh, ZFP14 / RFU, ACTR2 / Fold change vs veh, ACTR2 / RFU, PPP3R1 / Fold change vs veh, PPP3R1 / RFU, PIK3R1 / Fold change vs veh, PIK3R1 / RFU, HNRNPA1 / Fold change vs veh, HNRNPA1 / RFU, RNF170 / Fold change vs veh, RNF170 / RFU, ZNF28 / Fold change vs veh, ZNF28 / RFU, RNGTT / Fold change vs veh, RNGTT / RFU, OGT / Fold change vs veh, OGT / RFU, BRD1 / Fold change vs veh, BRD1 / RFU, MARS / Fold change vs veh, MARS / RFU, ZNF655 / Fold change vs veh, ZNF655 / RFU, FAHD1 / Fold change vs veh, FAHD1 / RFU, BDP1 / Fold change vs veh, BDP1 / RFU, LRRCC1 / Fold change vs veh, LRRCC1 / RFU, ARID1A / Fold change vs veh, ARID1A / RFU, ZNF146 / Fold change vs veh, ZNF146 / RFU, ZNF330 / Fold change vs veh, ZNF330 / RFU, GPN3 / Fold change vs veh, GPN3 / RFU, C9orf123 / Fold change vs veh, C9orf123 / RFU, N4BP2L2 / Fold change vs veh, N4BP2L2 / RFU, ARFIP1 / Fold change vs veh, ARFIP1 / RFU, FAM179B / Fold change vs veh, FAM179B / RFU, BCL10 / Fold change vs veh, BCL10 / RFU, UHRF1BP1L / Fold change vs veh, UHRF1BP1L / RFU, BET1 / Fold change vs veh, BET1 / RFU, CNOT2 / Fold change vs veh, CNOT2 / RFU, ZNF268 / Fold change vs veh, ZNF268 / Fold change vs veh, ZNF507 / RFU, DGCR2 / Fold change vs veh, DGCR2 / RFU, WDSUB1 / Fold change vs veh, WDSUB1 / Fold change vs veh, HSP90B1 /// MIR3652 / RFU, ADSS / Fold change vs veh, ADSS / RFU, GK / Fold change vs veh, GK / RFU, ZNF148 / Fold change vs veh, ZNF148 / RFU, TAF9 / Fold change vs veh, TAF9 / RFU, SLC1A5 / Fold change vs veh, SLC1A5 / RFU, SLMO2 / Fold change vs veh, SLMO2 / RFU, ABCC4 / Fold change vs veh, ABCC4 / RFU, LOC101060439 /// RAP1B / Fold change vs veh, LOC101060439 /// RAP1B / RFU, RFX7 / Fold change vs veh, RFX7 / RFU, GTPBP10 / Fold change vs veh, GTPBP10 / RFU, CNEP1R1 / Fold change vs veh, CNEP1R1 / RFU, BIVM-ERCC5 /// ERCC5 / Fold change vs veh, BIVM-ERCC5 /// ERCC5 / RFU, ILF3 / Fold change vs veh, ILF3 / RFU 11762660_at / Fold change /veh 11762660_at / RFU VCAN (11757783_s_at) / Fold change /veh VCAN (11757783_s_at) / RFU DDX43 (11728927_at) / Fold change /veh DDX43 (11728927_at) / RFU KRT8 (11758188_x_at) / Fold change /veh KRT8 (11758188_x_at) / RFU NKD1 (11759106_at) / Fold change /veh NKD1 (11759106_at) / RFU SRD5A1 (11742802_a_at) / Fold change /veh SRD5A1 (11742802_a_at) / RFU TPSAB1 /// TPSB2 (11721975_s_at) / Fold change /veh TPSAB1 /// TPSB2 (11721975_s_at) / RFU GSTM3 (11746129_a_at) / Fold change /veh GSTM3 (11746129_a_at) / RFU IL23R (11737362_x_at) / Fold change /veh IL23R (11737362_x_at) / RFU TMEM51 (11727254_a_at) / Fold change /veh TMEM51 (11727254_a_at) / RFU PIWIL2 (11732686_x_at) / Fold change /veh PIWIL2 (11732686_x_at) / RFU ORM1 (11744905_x_at) / Fold change /veh ORM1 (11744905_x_at) / RFU CCDC152 (11743942_at) / Fold change /veh CCDC152 (11743942_at) / RFU ECM1 (11717891_a_at) / Fold change /veh ECM1 (11717891_a_at) / RFU IL23R (11748794_a_at) / Fold change /veh IL23R (11748794_a_at) / RFU TNFAIP8L3 (11732012_x_at) / Fold change /veh TNFAIP8L3 (11732012_x_at) / RFU MBOAT4 (11741988_at) / Fold change /veh MBOAT4 (11741988_at) / RFU 11764193_at / Fold change /veh 11764193_at / RFU TMEM53 (11763286_at) / Fold change /veh TMEM53 (11763286_at) / RFU MAGEB2 (11727129_at) / Fold change /veh MAGEB2 (11727129_at) / RFU TMEM200A (11744735_a_at) / Fold change /veh TMEM200A (11744735_a_at) / RFU CCDC152 (11751479_a_at) / Fold change /veh CCDC152 (11751479_a_at) / RFU FAM211A (11726209_a_at) / Fold change /veh FAM211A (11726209_a_at) / RFU RGS16 (11746705_a_at) / Fold change /veh RGS16 (11746705_a_at) / RFU VCAN (11755009_s_at) / Fold change /veh VCAN (11755009_s_at) / RFU RHOB (11743442_s_at) / Fold change /veh RHOB (11743442_s_at) / RFU RGS16 (11720943_a_at) / Fold change /veh RGS16 (11720943_a_at) / RFU RGS16 (11720944_at) / Fold change /veh RGS16 (11720944_at) / RFU, VPS4B / Fold change vs veh, VPS4B / RFU, CREB1 / Fold change vs veh, CREB1 / RFU, DNAJC13 / Fold change vs veh, DNAJC13 / RFU, GNAQ / Fold change vs veh, GNAQ / RFU, CDK5R1 / Fold change vs veh, CDK5R1 / RFU, ZRANB3 / Fold change vs veh, ZRANB3 / RFU, CUL4A / Fold change vs veh, CUL4A / RFU, CCNY / Fold change vs veh, CCNY / RFU, UFL1 / Fold change vs veh, UFL1 / RFU, COG3 / Fold change vs veh, COG3 / RFU, DIAPH2 / Fold change vs veh, DIAPH2 / RFU, SKA2 / Fold change vs veh, SKA2 / RFU, AFF3 / Fold change vs veh, AFF3 / RFU, LMF1 / Fold change vs veh, LMF1 / RFU, IPO11 / Fold change vs veh, IPO11 / RFU, DFFB / Fold change vs veh, DFFB / RFU, FOXP1 / Fold change vs veh, FOXP1 / RFU, CARD8 / Fold change vs veh, CARD8 / RFU, STRN3 / Fold change vs veh, STRN3 / RFU, ADK / Fold change vs veh, ADK / RFU, RASSF2 / Fold change vs veh, RASSF2 / RFU, WIPF1 / Fold change vs veh, WIPF1 / RFU, LARP1B / Fold change vs veh, LARP1B / RFU, RASA1 / Fold change vs veh, RASA1 / RFU, RB1 / Fold change vs veh, RB1 / RFU, PPFIA1 / Fold change vs veh, PPFIA1 / RFU, MAT2A / Fold change vs veh, MAT2A / RFU, CCT5 / Fold change vs veh, CCT5 / RFU, WDR92 / Fold change vs veh, WDR92 / RFU, CUX1 / Fold change vs veh, CUX1 / RFU, TTC7A / Fold change vs veh, TTC7A / RFU, TMEM135 / Fold change vs veh, TMEM135 / RFU, DEPTOR / Fold change vs veh, DEPTOR / RFU, CPM / Fold change vs veh, CPM / RFU, DNAJB6 / Fold change vs veh, DNAJB6 / RFU, CACNA2D3 / Fold change vs veh, CACNA2D3 / RFU, DTX4 / Fold change vs veh, DTX4 / RFU, TFCP2 / Fold change vs veh, TFCP2 / RFU, GMCL1 /// GMCL1P1 / Fold change vs veh, GMCL1 /// GMCL1P1 / RFU, AEBP2 / Fold change vs veh, AEBP2 / RFU, SNHG1 /// SNORD22 /// SNORD25 /// SNORD26 /// SNORD27 /// SNORD28 /// SNORD29 /// SNORD31 / Fold change vs veh, SNHG1 /// SNORD22 /// SNORD25 /// SNORD26 /// SNORD27 /// SNORD28 /// SNORD29 /// SNORD31 / Fold change (Aza/veh), C12orf56 (ProbeSet 11735607_a_at) / Fold change (ACY-1035/veh), C12orf56 (ProbeSet 11735607_a_at) / Fold change (Aza/veh), FGFR1OP (ProbeSet 11751329_s_at) / Fold change (ACY-1035/veh), FGFR1OP (ProbeSet 11751329_s_at) / Fold change (Aza/veh), VPS36 (ProbeSet 11739960_a_at) / Fold change (ACY-1035/veh), VPS36 (ProbeSet 11739960_a_at) / RFU SYPL1 (11715823_x_at) / Fold change /veh SYPL1 (11715823_x_at) / RFU IGFBP7 (11715501_s_at) / Fold change /veh IGFBP7 (11715501_s_at) / RFU REEP3 (11722064_at) / Fold change /veh REEP3 (11722064_at) / RFU IGLL1 (11728026_x_at) / Fold change /veh IGLL1 (11728026_x_at): dose or concentration left out as unconfirmed
Conditions: MV-4-11 cells, 48 hours

Nc1ncn([C@@H]2O[C@H](CO)[C@@H](O)[C@H]2O)c(=O)n1 [azacitidine]
RFU RGS16 (11720943_a_at): 102.77 RFU
